The values that follow come from patent publication US10398717B2, “Pharmaceutical composition based on a hepatoprotector and prebiotic, and method for administrating” (priority 2008, dated 2019).

For data set [1] the following is noted: cited from earlier work.
A further data set relates to colon contents. Particulars: in vivo; cited from earlier work.
For data set [2], the system named is patients with diffuse liver diseases (cirrhosis, hepatitis) with intrhepatic cholestasis syndrome. Particulars: human, in vivo; cited from earlier work.
The next data set deals with Sprague-Dawley rats. Nature of the data set: High-fat diet induced non-alcoholic hepatitis model. The note with it: liver histology, day 121; oral administration during 90 days. The format is in vivo. How it is done:
The control group (Group 4, n=14 in each group) was administered an equal amount of 1% methyl cellulose suspension. The animals were monitored for 120 days on the background of continuous pathology induction. Administration of drugs began after 30 days from the beginning of diet supplementation (10 % lard and 2% cholesterol for each 100 g feed). The effect of therapy was assessed by biochemical parameters (ALT, AST, triglycerides) and liver histology. On day 121, animals were euthanized and liver histology was performed. In the control group, […] of animals developed steatosis.

As for `OC[C@H]1O[C@@H](O[C@@H]2[C@@H](CO)O[C@](O)(CO)[C@H]2O)[C@H](O)[C@@H](O)[C@H]1O` [lactulose, 4-0-D-galactopyranosyl-D-fructose], the solubility in water entry in data set [1] is on record as “very soluble in water”. In the data set on colon contents, the “increase of volume of colon contents” value is recorded as “about 30%”.

On to `C[S+](CC[C@H](N)C(=O)[O-])C[C@H]1O[C@@H](n2cnc3c(N)ncnc32)[C@H](O)[C@@H]1O` (stereo partly drawn) [ademethionine, S-adenosil-L-metionine], for which, in data set [2], the “duration of antiasthenic, anticholestatic and hepatoprotective effects after the treatment was stopped” value is on record as 3 months; the “patients with decrease of intensity of asthenic syndrome” value is on record as 46%; the “patients with disappearance of asthenic syndrome” value is 54%.

In the case of `C[C@H](CCC(=O)O)[C@H]1CC[C@H]2[C@@H]3[C@@H](O)C[C@@H]4C[C@H](O)CC[C@]4(C)[C@H]3CC[C@]12C` [Group 3, ursodeoxycholic acid], the “rats in which signs of steatosis, ballooning, and inflammation improved” value in the data set with Sprague-Dawley rats turned out to be 50%.
